{"source": "paper PMC10072326", "about": "“Promising anticancer agents based on 8-hydroxyquinoline hydrazone copper(II) complexes” (Frontiers in Chemistry, 2023)", "key": {"[1]": {"assay": "Thermodynamic solubility at pH 7.4", "assay_type": "physicochemical", "conditions": "Cu(II) complexes; pH 7.40; 20 mM HEPES; 25.0°C", "method": "Thermodynamic solubility (S) was measured for the new ligands, L^7 and L^8, since data for the rest of the series was previously reported (9), and for selected Cu(II) complexes: 1, 5 and 6. Solubility was measured for the saturated solutions in water at pH 7.40 in 20 mM HEPES at 25.0 ± 0.1 °C. The concentration was determined by UV-Vis spectrophotometry using the stock solutions of the compounds with known concentrations dissolved in 100% DMSO, 50% and 25% (v/v) DMSO/buffered aqueous solutions for the calibration."}, "[2]": {"molecular_target": "bovine serum albumin (BSA) (Bos taurus, UniProt P02769)", "sequence (P02769 25-607)": "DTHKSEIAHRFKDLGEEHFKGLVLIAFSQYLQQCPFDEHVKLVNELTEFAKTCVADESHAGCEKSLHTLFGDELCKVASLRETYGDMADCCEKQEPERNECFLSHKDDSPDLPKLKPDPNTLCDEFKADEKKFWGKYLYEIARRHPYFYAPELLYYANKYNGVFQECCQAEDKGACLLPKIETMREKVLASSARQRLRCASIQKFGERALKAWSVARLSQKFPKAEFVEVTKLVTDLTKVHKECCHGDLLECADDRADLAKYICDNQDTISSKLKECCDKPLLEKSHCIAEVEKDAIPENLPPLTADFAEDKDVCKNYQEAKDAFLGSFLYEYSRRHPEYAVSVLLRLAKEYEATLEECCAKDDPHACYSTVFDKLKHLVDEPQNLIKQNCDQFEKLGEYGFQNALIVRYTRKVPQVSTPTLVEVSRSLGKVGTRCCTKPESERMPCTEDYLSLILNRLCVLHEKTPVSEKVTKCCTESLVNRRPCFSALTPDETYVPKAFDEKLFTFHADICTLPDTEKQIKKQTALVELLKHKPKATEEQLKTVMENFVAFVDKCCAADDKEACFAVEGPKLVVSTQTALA", "assay": "BSA fluorescence quenching", "assay_type": "binding", "parameters": "Affinity constant K ± SD: unit not given here", "conditions": "fluorescence quenching; HypSpec2014; 1:1 species assumed", "method": "To evaluate the interaction of the compounds, both organic and Cu(II) complexes, with bovine serum albumin (BSA) fluorescence spectra were measured. In a typical fluorescence experiment, to a solution of 1.5 μM of BSA in the same buffer, successive aliquots of a stock solution of each compound in DMSO were added directly to the cuvette (optical path 1.0 cm). The fluorescence emission was recorded between 310 and 600 nm with excitation at 295 nm. The final DMSO % was kept below 2% (v/v). The Stern-Volmer plots were built using the emission at 340 nm and blank samples (in the absence of BSA) with the same concentration of the complexes were recorded and subsequently subtracted from the corresponding emission spectra containing the fluorophore. Moreover, the fluorescence emission intensity was corrected for reabsorption and inner filter effects using UV-Vis absorption data recorded for each sample, since all complexes absorb in the measured wavelength range (19, 20).\nThe interaction of the organic compounds and Cu(II) complexes with BSA was monitored by studying the quenching of albumin’s fluorescence emission with increasing concentrations of the complexes (25). Overall, the intensity of the Trp emission decreases with the addition of the complexes, except for 8 (see Figs. S19). The Stern-Volmer relationship was used to analyse the fluorescence quenching process:\nwhere I0 and I are the fluorescence intensities in the absence and in the presence of quencher, kq is the bimolecular quenching rate, τ0 is the fluorophore lifetime in the absence of the quencher (6.22 ns) (26) and [Q] is the quencher concentration. […] This linear relationship is obeyed for all complexes except 5, where a downward curvature is observed. This can be an indication of two distinct binding sites, corresponding to two populations of fluorophores, one being accessible and other inaccessible or buried inside the protein. In such cases, the Stern-Volmer relation can be modified to (27):\nwhere ΔI = I0 – I, Ka is the Stern-Volmer constant for the accessible fraction and fa is the fraction of accessible fluorophore. […] As first approximation, the total concentration of quencher was used to check the quenching mechanism. […] As all systems presented high absorbance values in the measured range of wavelengths, no excess of quencher was used and, therefore, 1:1 species will be assumed for these interactions."}, "A-375 cells": {"tested_on": "A-375 cells", "assay": "Sulforhodamine B (SRB) cell viability assay", "assay_type": "cell-based", "conditions": "72 h", "method": "(§1) Copper compounds were tested, along with the free ligands and cisplatin as the positive control, for their cytotoxicity on both melanoma (A-375) and lung adenocarcinoma (A-549) cell lines in the concentration range 0.78–50 μM. Following 72 h of incubation, cell viability was measured via sulforhodamine B (SRB) assay (Supplementary Figure S25).\n(§2) A-375 cells (ATCC, CRL-3222) were grown in Dulbecco’s Modified Eagle Medium with high glucose (Gibco #11965118) and A-549 (ATCC, CCL-185) cells were grown in Dulbecco’s Modified Eagle Medium F-12 (Gibco #11320033), supplemented with 10% FBS (Gibco, #10500064) and Penicillin-Streptomycin (10,000 U/mL, Gibco, #15140122). Cells were incubated at 37 °C, 5% CO2 incubator and subcultured every 3 days.\n(§3) All the tested complexes were dissolved in DMSO (10 mM stock solution), and aliquots were stored at -20 °C, thawed on the experiment day and used only once. For SRB cell viability assay, A-375 and A-549 cells were seeded on 96-well plates (4×10^3 cells/well) and treated with serial dilutions of indicated compounds (with a concentration range of 0-50 μM, 72 h). Trichloroacetic acid (TCA) was added to wells for fixation at a final concentration of 10%, for 1 h at 4 °C. Each well was washed five times with ddH2O, dried, and incubated with 0.4% (w/v) SRB dye (50 µL/well) for 30 min at room temperature. The wells were washed with 1% acetic acid (v/v) five times, and 150 µL of 10 mM Tris solution was added to dissolve the stain. Colorimetric measurements were taken at λ = 564 nm. Viability percentage was calculated as follows: % Cell Viability = [100 × (sample Abs.-blank) / (non-treated control Abs.-blank)]."}, "A-549 cells": {"tested_on": "A-549 cells", "assay": "Sulforhodamine B (SRB) cell viability assay", "assay_type": "cell-based", "conditions": "72 h", "method": "as §1, §2, §3"}, "[3]": {"assay": "Cu(II) complex formation and stability constants by UV-Vis spectrophotometric titrations", "assay_type": "physicochemical", "conditions": "physiological pH; 1 μM concentration", "method": "The complex formation processes of L^1, L^5 and L^6 with Cu(II) ions were studied by UV-Vis spectrophotometry in 30% (v/v) DMSO/H2O using relatively low concentrations (c L = 50–60 μM), due to the limited water solubility of the ligand precursors as well as of the Cu(II) complexes (see thermodynamic solubility data in aqueous media in Table 2 and Table 3). L^1 was selected as the simplest compound of the studied ligand series, whereas L^5 and L^6 were selected to compare with the oxidovanadium(IV) system ([Ribeiro et al., 2022]). The solution stability and stoichiometry of the Cu(II) complexes were determined by the evaluation of the UV-Vis spectra recorded at various pH values (representative spectra are shown for the Cu(II) ‒ L^1 and Cu(II) ‒ L^6 systems in Figures 3A,B and for Cu(II) ‒ L^5 in Supplementary Figure S10A). The computed overall stability constants and pK a values of the complexes are collected in Table 3. The formation of only mono-ligand complexes was found with [Cu(LH)]^+, [Cu(L)], and [Cu(LH‒1)]^‒ (and [Cu(LH‒2)]^2‒ in the case of L^6) compositions, and their computed molar absorbance spectra are shown in Figures 3C, D, Supplementary Figure S10B.\nAn Agilent Cary 8454 diode array spectrophotometer was used to record the UV-Vis spectra in the range of 200–800 nm. Titrations were carried out with a Metrohm 665 Dosimat burette and an Orion 710A pH-meter equipped with a Metrohm combined electrode. A ionic strength of 0.10 M (KCl) was used to keep the activity coefficients constant. The titrations were performed with 0.10 M carbonate-free KOH solution in a 30% (v/v) DMSO/H2O solvent mixture. […] The average water ionization constant (pKw) is 14.53 ± 0.05 in the 30% (v/v) DMSO/H2O solvent mixture. The pKa values of the ligand precursors and the logβ values for the Cu(II) complexes were determined in 30% (v/v) DMSO/H2O in the same way as it was done in our previous publications (9, 11).\nSpectrophotometric titrations were carried out on samples containing the ligands at 50 μM concentration, in the pH range from 2.0 to 11.5 in the absence or the presence of 1, 0.5 or 0.25 equiv. Cu(II) ions, using 10 cm^3 sample volumes. Proton dissociation constants (pKa) of the ligand precursors as well as stoichiometry and stability constants of the Cu(II) complexes (β) were calculated by the computer program PSEQUAD (12). The usual definition of overall (β) and stepwise (K) formation constants is used: […]"}, "S. aureus ATCC 25928": {"tested_on": "S. aureus ATCC 25928", "assay": "MIC determination", "assay_type": "cell-based, Staphylococcus aureus", "conditions": "S. aureus ATCC 25928 (sensitive); 18 h", "method": "(§4) Wild-type Escherichia coli K-12 AG100 strain [argE3 thi-1 rpsL xyl mtl Δ(gal-uvrB) supE44] expressing the AcrAB TolC efflux pump at its basal level and Klebsiella pneumoniae ATCC 49619 Gram-negative strains were studied in the experiments. Sensitive (ATCC 25928) and the methicillin-resistant (MRSA 272123) subspecies of Staphylococcus aureus were used as Gram-positive strains in the assays.\n(§5) Minimum inhibitory concentration (MIC) values of selected compounds were determined in 96-well plates based on the Clinical and Laboratory Standard Institute guidelines (CLSI guidelines). The stock solutions of the compounds were dissolved in DMSO using 1.3 μL of Mueller Hinton Broth, and then two-fold serial dilutions were performed. The starting concentration of the compounds was 100 μM. Then 10^‒4 dilution of an overnight bacterial culture in 100 μL of medium was added to each well, except for the medium control wells."}, "S. aureus MRSA 272123": {"tested_on": "S. aureus MRSA 272123", "assay": "MIC determination", "assay_type": "cell-based, Staphylococcus aureus", "conditions": "18 h", "method": "as §4, §5"}, "[4]": {"tested_on": "Escherichia coli K-12 AG100", "assay": "MIC determination", "assay_type": "cell-based", "conditions": "E. coli; 18 h", "method": "as §4, §5"}, "[5]": {"tested_on": "Klebsiella pneumoniae ATCC 49619", "assay": "MIC determination", "assay_type": "cell-based", "conditions": "K. pneumoniae; 18 h", "method": "as §4, §5"}}, "data": [{"smiles": "O=C([N-]N=Cc1ccc2cccc([O-])c2n1)c1ccc(Cl)cc1.O=C([N-]N=Cc1ccc2cccc([O-])c2n1)c1ccc(Cl)cc1.O=C([N-]N=Cc1ccc2cccc([O-])c2n1)c1ccc(Cl)cc1.[Cu+2].[Cu+2].[Cu+2]", "note": "[Complex 2, [Cu(L^2)]3]", "values": [{"measurement": "thermodynamic solubility S 7.4", "setting": "[1]", "result": "< 1", "unit": "µM"}, {"measurement": "Affinity constant K ± SD", "setting": "[2]", "result": "(8.3 ± 0.1) × 10^4"}, {"measurement": "IC50", "setting": "A-375 cells", "result": "6.5 ± 0.8", "unit": "µM"}, {"measurement": "IC50", "setting": "A-549 cells", "result": "9.3 ± 0.4", "unit": "µM"}]}, {"smiles": "CC(=O)[O-].Cc1ccc(C(=O)NN=Cc2ccc3cccc([O-])c3n2)cc1.[Cu+2]", "note": "[Complex 4, [Cu(HL^4)(AcO)]]", "values": [{"measurement": "thermodynamic solubility S 7.4", "setting": "[1]", "result": "4.0 ± 0.2", "unit": "µM"}, {"measurement": "Affinity constant K ± SD", "setting": "[2]", "result": "(3.2 ± 1.0) × 10^6"}, {"measurement": "IC50", "setting": "A-375 cells", "result": "2 ± 1.3", "unit": "µM"}, {"measurement": "IC50", "setting": "A-549 cells", "result": "3.9 ± 0.6", "unit": "µM"}]}, {"smiles": "O=C([N-]N=Cc1ccc2cccc([O-])c2n1)c1ccc(O)cc1.O=C([N-]N=Cc1ccc2cccc([O-])c2n1)c1ccc(O)cc1.O=C([N-]N=Cc1ccc2cccc([O-])c2n1)c1ccc(O)cc1.[Cu+2].[Cu+2].[Cu+2]", "note": "[Complex 6, [Cu(L^6)]3]", "values": [{"measurement": "level of dissociation of the complex", "setting": "[3]", "result": "ca. 5%"}, {"measurement": "Affinity constant K ± SD", "setting": "[2]", "result": "(2.7 ± 0.8) × 10^5"}, {"measurement": "IC50", "setting": "A-375 cells", "result": "13.6 ± 0.9", "unit": "µM"}, {"measurement": "IC50", "setting": "A-549 cells", "result": "16 ± 0.3", "unit": "µM"}, {"measurement": "MIC", "setting": "S. aureus ATCC 25928", "result": "> 100", "unit": "µM"}, {"measurement": "MIC", "setting": "S. aureus MRSA 272123", "result": "> 100", "unit": "µM"}, {"measurement": "MIC", "setting": "[4]", "result": "> 100", "unit": "µM"}, {"measurement": "MIC", "setting": "[5]", "result": "> 100", "unit": "µM"}]}, {"smiles": "[Cl][Cu][Cl]", "note": "[CuCl2, reference compound]", "values": [{"measurement": "MIC", "setting": "S. aureus ATCC 25928", "result": "> 100", "unit": "µM"}, {"measurement": "MIC", "setting": "S. aureus MRSA 272123", "result": "> 100", "unit": "µM"}, {"measurement": "MIC", "setting": "[4]", "result": "> 100", "unit": "µM"}, {"measurement": "MIC", "setting": "[5]", "result": "> 100", "unit": "µM"}]}, {"smiles": "N.N.[Cl][Pt][Cl]", "note": "[cisplatin, reference compound]", "values": [{"measurement": "IC50", "setting": "A-375 cells", "result": "11.2 ± 0.3", "unit": "µM"}, {"measurement": "IC50", "setting": "A-549 cells", "result": "16.5 ± 3.4", "unit": "µM"}]}]}
